Test results from patent publication US4086347A, “9-[3-(4-Phenoxymethylpiperidino)-propyl]-adenines” (Boehringer Mannheim GmbH, priority 1975, dated 1978).

Tests used:
[1] = test system: passive cutaneous anaphylactic reaction in rats produced by injection of serum containing reaginic antibodies to egg albumin; experiment: Inhibition of passive cutaneous anaphylactic (PCA) reaction in rats induced by reaginic antibodies; format: in vivo, rat; conditions: intravenously immediately before antigen
Experimental: Diethylcarbamazin, i.e., 1-diethylcarbamoyl-4-methylpiperazine was used as a comparison compound. Specifically, tests were run as follows:
Serum containing reaginic (IgE-like) antibody to egg albumin was prepared by injecting rats intramuscularly with 0.1 ml of a solution of the antigen (10 mg/ml) in saline together with 0.5 ml of Bordetella pertussis vaccine (Behring; 2 × 10^10 organisms/ml). 9-14 Days later the animals were bled from the abdominal aorta; the serum was pooled and stored at -20° C until required. The titer of the serum, i.e., the highest dilution inducing passive cutaneous anaphylaxis (PCA) in the rat following a 48-hour latent period, was between 1:8 and 1:32. For use in these experiments the serum was diluted 1:24.
The animals were anesthetized with 2,2-dichloro-1,1-difluoroethyl-methyl ether, sold under the trademark Penthrane, and were sensitized by injecting 0.1 ml of the antiserum into the shaved abdominal flanks. After 48 hours for reaginic PCA, the animals were given an intravenous injection of 1 ml of saline solution containing 0.5% by weight of egg albumin and 0.25% by weight of Evans Blue.
After having killed and exsanguinated the animals, the size in square millimeters and the intensity, in arbitary scores, of the resulting blue spot were determined. The product of these two parameters was used to determine the degree of the reaction and the degree of reaction with no active material was taken as the standard against which to measure % inhibition of the anaphylactic reaction.
6 Animals were used per dose level and for control.
The test material was injected intravenously immediately before the antigen, using a solution in water containing 0.5% HCl and 2% of dimethylformamide. For comparative purposes there was also tested diethylcarbamoyl-4-methylpiperazine sold under the tradename Diethylcarbamazin. The volumes of the injections were varied to give the indicated dosage of active material. The results obtained were as follows:
(Ovalbumin 2 × cryst. and Bord. pertussis 2 × 10^10) Active material applied intravenously immediately before antigen

blood pressure = experiment: Blood pressure reduction in awake rats with arterial high pressure (sodium chloride / 11-deoxycorticosteroneacetate); format: in vivo, rat; conditions: 4 hours after application, median
Experimental: In order to establish the effectiveness of the novel products of the invention as agents for reducing blood pressure, a series of tests as follows were carried out.
The following were the test methods used:
The test animals were rats into which arterial catheters had been implanted in a sterile operation via the arteria femoralis into the aorta. It was possible to measure the animals' blood pressure in the awake state directly in the blood with a transducer (Statham Transducer Type TP 23 D 6) via a carrier frequency measuring bridge. The animals were treated by administration of 10% common salt (sodium chloride) in their feed and, starting on the sixth week of their life, two injections per week of 5 mg at a time of 11-deoxycorticosteroneacetate per animal and thus developed an arterial high pressure in the median with values of […]. The test compounds were administered to the animals as follows: After the blood pressure control values had been determined, the animals received the test compound perorally suspended in 10 ml of 1% methyl cellulose solution in the indicated dosage and measurements were taken 4 hours after oral application of the substance.
The values set forth in the Table represent in each case the median of at least 7 individual measurements of blood pressure depression (in mm Hg) per applied substance.

With CCN(CC)C(=O)N1CCN(C)CC1 [Diethylcarbamazin, 1-diethylcarbamoyl-4-methylpiperazine, reference compound] the “% Inhibition PCA” value ([1]; 60.0 mg/kg) was 58%.
With Nc1ncnc2c1ncn2CCCN1CCC(COc2ccccc2)CC1 [Example 1, 9-[3-(4-Phenoxymethylpiperidino)-propyl]-adenine] the “Maximum Blood Pressure Reduction” value (blood pressure; 25 mg/kg perorally) was -76 ± 5 mm Hg, the “% Inhibition PCA” value ([1]; 0.38 mg/kg) was 27% and the “% Inhibition PCA” value ([1]; 0.75 mg/kg) was 45%.
For Nc1ncnc2c1ncn2CCCN1CCC(COc2ccccc2Br)CC1 [Example 1a, 9-{3-[4-(2-bromophenoxymethyl)-piperidino]-propyl}-adenine], the “Maximum Blood Pressure Reduction” value (blood pressure; 25 mg/kg perorally) was -47 ± 7 mm Hg.
Nc1ncnc2c1ncn2CCCN1CCC(COc2ccccc2Cl)CC1 [Example 1b, 9-{3-[4-(2-chlorophenoxymethyl)-piperidino]-propy}-adenine] was tested, and the “Maximum Blood Pressure Reduction” value (blood pressure; 25 mg/kg perorally) was -64 ± 5 mm Hg and the “% Inhibition PCA” value ([1]; 0.38 mg/kg) was 32%.
With Nc1ncnc2c1ncn2CCCN1CCC(COc2ccc(Cl)cc2)CC1 [Example 1d, 9-{3-[4-(4-chlorophenoxymethyl)-piperidino]-propyl}-adenine] the “Maximum Blood Pressure Reduction” value (blood pressure; 50 mg/kg perorally) was -25 ± 7 mm Hg.
In the case of Nc1ncnc2c1ncn2CCCN1CCC(COc2ccc(F)cc2)CC1 [Example 1e, 9-{3-[4-(4-fluorophenoxymethyl)-piperidino]-propyl}-adenine], the “Maximum Blood Pressure Reduction” value (blood pressure; 25 mg/kg perorally) was -60 ± 7 mm Hg and the “% Inhibition PCA” value ([1]; 0.38 mg/kg) was 54%.
In the case of COc1cccc(OCC2CCN(CCCn3cnc4c(N)ncnc43)CC2)c1 [Example 1g, 9-{3-[4-(3-methoxy-phenoxymethyl)-piperidino]-propyl}-adenine], the “Maximum Blood Pressure Reduction” value (blood pressure; 25 mg/kg perorally) was -18 ± 4 mm Hg.
With COc1ccc(OCC2CCN(CCCn3cnc4c(N)ncnc43)CC2)cc1 [Example 1h, 9-{3-[4-(4-methoxy-phenoxymethyl)-piperidino]-propyl}-adenine] the “Maximum Blood Pressure Reduction” value (blood pressure; 25 mg/kg perorally) was -19 ± 3 mm Hg.
In the case of Cc1ccccc1OCC1CCN(CCCn2cnc3c(N)ncnc32)CC1 [Example 1i, 9-{3-[4-(2-methyl-phenoxymethyl)-piperidino]-propyl}-adenine], the “Maximum Blood Pressure Reduction” value (blood pressure; 25 mg/kg perorally) was -55 ± 7 mm Hg.
For CNc1ncnc2c1ncn2CCCN1CCC(COc2ccccc2)CC1 [Example 1j, N^6-methyl-9-[3-(4-phenoxymethyl-piperidino)-propyl]-adenine], the “% Inhibition PCA” value ([1]; 0.38 mg/kg) was 21% and the “% Inhibition PCA” value ([1]; 0.75 mg/kg) was 60%.
In the case of CNc1ncnc2c1ncn2CCCN1CCC(COc2ccc(F)cc2)CC1 [Example 1k, N^6-methyl-9-{3-[4-(4-fluorophenoxy-methyl)-piperidino]-propyl}-adenine], the “Maximum Blood Pressure Reduction” value (blood pressure; 25 mg/kg perorally) was -49 ± 8 mm Hg and the “% Inhibition PCA” value ([1]; 0.38 mg/kg) was 21%.
With CCNc1ncnc2c1ncn2CCCN1CCC(COc2ccc(F)cc2)CC1 [Example 1m, N^6-ethyl-9-{3-[4-(4-fluorophenoxy-methyl)-piperidino]-propyl}-adenine] the “Maximum Blood Pressure Reduction” value (blood pressure; 25 mg/kg perorally) was -20 ± 6 mm Hg.
For OCCNc1ncnc2c1ncn2CCCN1CCC(COc2ccccc2)CC1 [Example 1n, N^6-(2-hydroxyethyl)-9-[3-(4-phenoxy-methyl-piperidino)-propyl]-adenine], the “Maximum Blood Pressure Reduction” value (blood pressure; 25 mg/kg perorally) was -48 ± 5 mm Hg.
In the case of CCCNc1ncnc2c1ncn2CCCN1CCC(COc2ccccc2)CC1 [Example 1o, N^6-n-propyl-9-[3-(4-phenoxymethyl-piperidino)-propyl]-adenine], the “Maximum Blood Pressure Reduction” value (blood pressure; 25 mg/kg perorally) was -67 ± 7 mm Hg.
CCCNc1ncnc2c1ncn2CCCN1CCC(COc2ccc(F)cc2)CC1 [Example 1p, N^6-n-propyl-9-{3-[4-(4-fluorophenoxy-methyl)-piperidino]-propyl}-adenine] was tested, and the “Maximum Blood Pressure Reduction” value (blood pressure; 25 mg/kg perorally) was -57 ± 8 mm Hg.
With CN(C)c1ncnc2c1ncn2CCCN1CCC(COc2ccccc2)CC1 [Example 1q, 6-dimethylamino-9-[3-(4-phenoxymethyl-piperidino)-propyl]-purine] the “Maximum Blood Pressure Reduction” value (blood pressure; 25 mg/kg perorally) was -41 ± 7 mm Hg.
With CCCCNc1ncnc2c1ncn2CCCN1CCC(COc2ccc(F)cc2)CC1 [Example 2, N^6-n-Butyl-9-{3-[4-(4-fluorophenoxymethyl)-piperidino]propyl}-adenine] the “Maximum Blood Pressure Reduction” value (blood pressure; 25 mg/kg perorally) was -53 ± 6 mm Hg.
CC(C)Nc1ncnc2c1ncn2CCCN1CCC(COc2ccccc2)CC1 [Example 2a, N^6-isopropyl-9-[3-(4-phenoxymethyl-piperidino)-propyl]-adenine] was tested, and the “Maximum Blood Pressure Reduction” value (blood pressure; 25 mg/kg perorally) was -35 ± 9 mm Hg.
In the case of CCCCNc1ncnc2c1ncn2CCCN1CCC(COc2ccccc2)CC1 [Example 2b, N^6-n-butyl-9-[3-(4-phenoxymethyl-piperidino)-propyl]-adenine], the “Maximum Blood Pressure Reduction” value (blood pressure; 50 mg/kg perorally) was -35 ± 11 mm Hg.
CC(N)(Cc1ccc(O)c(O)c1)C(=O)O (stereo not drawn) [α-Methyl-Dopa, reference compound] was tested, and the “Maximum Blood Pressure Reduction” value (blood pressure; 150 mg/kg perorally) was -33 ± 5 mm Hg.
